Laboratory results from US20050171185A1, “Indole derivatives” (Fujisawa Pharmaceutical Co., Ltd., a Japanese corporation, priority 1998, published 2005).

Test system: db/db mice
Experiment: Test for activity of decreasing plasma glucose using db/db mice
Type: in vivo
Settings: female db/db mice, test compound mixed in powdered chow (0.01%) for 14 days, dose 3.2 mg/kg; difference between db/db and +/+ mouse groups defined as 100%
From the text: Test Example: Test for Activity of Decreasing Plasma Glucose Using db/db Mice
3-(1-bromonaphthalen-2-ylmethyl)-5-((5-chloro-2-thiophenylsulfonyl)carbamoyl)-2-methylindole (Compound (23))
Five-week-old female mice [C57BL/KsJ-dbm db+/db+, C57BL/KsJ-dbm +m/+m (Jackson Laboratory)] were purchased, and were kept for 2 to 3 weeks. Then, these mice were used in the test.
A test compound was mixed with a powdered chow (CE-2, made by Nippon Clea) using a mortar. The mixing ratio was 0.01%. The mixed chow was changed twice a week for each group. The feed amount and the remaining amount were recorded, and the intake was calculated from the difference therebetween.
The female db/db mice were grouped according to the body weight, the plasma glucose, and the plasma triglyceride concentrations. […] Plasma glucose, triglyceride, and insulin concentrations were measured on day 0 and day 14 as well as plasma glucose and triglyceride concentrations on day 7. The body weight was measured on day 0, day 7, and day 14. […]
The plasma glucose was measured by a glucose oxidase method (Glucose CII-Test Wako made by Wako Pure Chemical Industries, Ltd.) using from 10 to 15 μl of plasma. The plasma triglyceride concentration was measured by a GPO-p-chlorophenol method (Triglyceride G-Test Wako made by Wako Pure Chemical Industries, Ltd.) or a GPO-DAOS method (Triglyceride E-Test Wako) using from 10 to 15 μl of plasma. […]

SMILES: Cc1[nH]c2ccc(C(=O)NS(=O)(=O)c3ccc(Cl)s3)cc2c1Cc1ccc2ccccc2c1Br [Compound (23), 3-((1-bromonaphthalen-2-yl)methyl)-5-((5-chloro-2-thiophenesulfonyl)carbamoyl)-2-methylindole]
- TG concentration-decreasing activity (rate of decrease in plasma triglyceride): 9%
- plasma glucose decreasing activity (rate of decrease in plasma glucose): 19%
